Data reported in the supplement of paper PMC10307832.

Columns and labels:
Experiment in all cases: relative viability (nuclei count vs DMSO), 5 days (fraction); higher = more cells survive
NCI-H2023 = system: NCI-H2023
How it was run: (§1)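 Lung cancer cell lines were pin-tool dosed in 1536-well plates on the day after seeding, with either a lone drug or a fixed anchor-drug dose plus five library-drug doses (not always all listed) in √10 steps. Nuclei were counted on 4× images after 5 days. Relative viability is the ratio of treated-well to vehicle-well nuclei counts, with each value a median of duplicate plates.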

NCI-H2126 = system: NCI-H2126
How it was run: as §1

HCC-15 = system: HCC-15
How it was run: as §1

LC-2-ad = system: LC-2-ad
How it was run: as §1

NCI-H3122 = system: NCI-H3122
How it was run: as §1

NCI-H1755 = system: NCI-H1755
How it was run: as §1

LU99A = system: LU99A
How it was run: as §1

BEN = system: BEN
How it was run: as §1

NCI-H1915 = system: NCI-H1915
How it was run: as §1

SW 1573 = system: SW 1573
How it was run: as §1

HOP-62 = system: HOP-62
How it was run: as §1

EMC-BAC-2 = system: EMC-BAC-2
How it was run: as §1

HCC-44 = system: HCC-44
How it was run: as §1

NCI-H1734 = system: NCI-H1734
How it was run: as §1

NCI-H1395 = system: NCI-H1395
How it was run: as §1

NCI-H1437 = system: NCI-H1437
How it was run: as §1

NCI-H727 = system: NCI-H727
How it was run: as §1

NCI-H358 = system: NCI-H358
How it was run: as §1

SW 900 = system: SW 900
How it was run: as §1

NCI-H2170 = system: NCI-H2170
How it was run: as §1

NCI-H1563 = system: NCI-H1563
How it was run: as §1

NCI-H650 = system: NCI-H650
How it was run: as §1

Cc1cn(-c2cc(NC(=O)c3ccc(C)c(Nc4nccc(-c5cccnc5)n4)c3)cc(C(F)(F)F)c2)cn1 [Nilotinib] + CCNC(=O)c1noc(-c2cc(C(C)C)c(O)cc2O)c1-c1ccc(CN2CCOCC2)cc1 [Luminespib] (partner 0.01 µM)
relative viability (NCI-H2023; first compound 0.001 µM): 0.854 | relative viability (NCI-H2023; first compound 0.003162 µM): 0.89 | relative viability (NCI-H2023; first compound 0.01 µM): 0.99 | relative viability (NCI-H2023; first compound 0.03162 µM): 1.07 | relative viability (NCI-H2023; first compound 0.1 µM): 0.38 | relative viability (NCI-H2126; first compound 0.001 µM): 0.832 | relative viability (NCI-H2126; first compound 0.003162 µM): 1 | relative viability (NCI-H2126; first compound 0.01 µM): 1.1 | relative viability (NCI-H2126; first compound 0.03162 µM): 0.936 | relative viability (NCI-H2126; first compound 0.1 µM): 0.596 | relative viability (HCC-15; first compound 0.001 µM): 0.241 | relative viability (HCC-15; first compound 0.003162 µM): 0.431 | relative viability (HCC-15; first compound 0.01 µM): 0.486 | relative viability (HCC-15; first compound 0.03162 µM): 0.219 | relative viability (HCC-15; first compound 0.1 µM): 0.325 | relative viability (LC-2-ad; first compound 0.001 µM): 0.85 | relative viability (LC-2-ad; first compound 0.003162 µM): 1.15 | relative viability (LC-2-ad; first compound 0.01 µM): 1.21 | relative viability (LC-2-ad; first compound 0.03162 µM): 0.947 | relative viability (LC-2-ad; first compound 0.1 µM): 0.8 | relative viability (NCI-H3122; first compound 0.001 µM): 0.109 | relative viability (NCI-H3122; first compound 0.003162 µM): 0.106 | relative viability (NCI-H3122; first compound 0.01 µM): 0.0956 | relative viability (NCI-H3122; first compound 0.03162 µM): 0.0805 | relative viability (NCI-H3122; first compound 0.1 µM): 0.047 | relative viability (NCI-H1755; first compound 0.001 µM): 0.651 | relative viability (NCI-H1755; first compound 0.003162 µM): 0.418 | relative viability (NCI-H1755; first compound 0.01 µM): 0.396 | relative viability (NCI-H1755; first compound 0.03162 µM): 0.632 | relative viability (NCI-H1755; first compound 0.1 µM): 0.376 | relative viability (LU99A; first compound 0.001 µM): 0.227 | relative viability (LU99A; first compound 0.01 µM): 0.274 | relative viability (LU99A; first compound 0.03162 µM): 0.219 | relative viability (LU99A; first compound 0.1 µM): 0.213 | relative viability (BEN; first compound 0.001 µM): 0.563 | relative viability (BEN; first compound 0.003162 µM): 0.275 | relative viability (BEN; first compound 0.01 µM): 0.378 | relative viability (BEN; first compound 0.03162 µM): 0.277 | relative viability (BEN; first compound 0.1 µM): 0.256 | relative viability (NCI-H1915; first compound 0.001 µM): 0.713 | relative viability (NCI-H1915; first compound 0.003162 µM): 0.896 | relative viability (NCI-H1915; first compound 0.01 µM): 1.41 | relative viability (NCI-H1915; first compound 0.03162 µM): 0.553 | relative viability (NCI-H1915; first compound 0.1 µM): 0.759 | relative viability (SW 1573; first compound 0.001 µM): 0.397 | relative viability (SW 1573; first compound 0.003162 µM): 0.711 | relative viability (SW 1573; first compound 0.01 µM): 0.277 | relative viability (SW 1573; first compound 0.03162 µM): 0.163 | relative viability (SW 1573; first compound 0.1 µM): 0.144 | relative viability (HOP-62; first compound 0.001 µM): 0.727 | relative viability (HOP-62; first compound 0.003162 µM): 0.792 | relative viability (HOP-62; first compound 0.01 µM): 0.839 | relative viability (HOP-62; first compound 0.03162 µM): 0.786 | relative viability (HOP-62; first compound 0.1 µM): 0.529 | relative viability (EMC-BAC-2; first compound 0.001 µM): 1.09 | relative viability (EMC-BAC-2; first compound 0.003162 µM): 1.36 | relative viability (EMC-BAC-2; first compound 0.01 µM): 1.22 | relative viability (EMC-BAC-2; first compound 0.03162 µM): 1.01 | relative viability (EMC-BAC-2; first compound 0.1 µM): 1.11 | relative viability (HCC-44; first compound 0.001 µM): 0.845 | relative viability (HCC-44; first compound 0.003162 µM): 1.12 | relative viability (HCC-44; first compound 0.01 µM): 1.14 | relative viability (HCC-44; first compound 0.03162 µM): 0.943 | relative viability (HCC-44; first compound 0.1 µM): 0.833 | relative viability (NCI-H1734; first compound 0.001 µM): 0.174 | relative viability (NCI-H1734; first compound 0.003162 µM): 0.168 | relative viability (NCI-H1734; first compound 0.01 µM): 0.208 | relative viability (NCI-H1734; first compound 0.03162 µM): 0.183 | relative viability (NCI-H1734; first compound 0.1 µM): 0.169 | relative viability (NCI-H1395; first compound 0.001 µM): 0.713 | relative viability (NCI-H1395; first compound 0.003162 µM): 0.39 | relative viability (NCI-H1395; first compound 0.01 µM): 0.702 | relative viability (NCI-H1395; first compound 0.03162 µM): 0.713 | relative viability (NCI-H1395; first compound 0.1 µM): 0.814 | relative viability (NCI-H1437; first compound 0.001 µM): 1.11 | relative viability (NCI-H1437; first compound 0.003162 µM): 1.3 | relative viability (NCI-H1437; first compound 0.01 µM): 1.26 | relative viability (NCI-H1437; first compound 0.03162 µM): 0.885 | relative viability (NCI-H1437; first compound 0.1 µM): 0.934 | relative viability (NCI-H727; first compound 0.001 µM): 0.349 | relative viability (NCI-H727; first compound 0.003162 µM): 0.516 | relative viability (NCI-H727; first compound 0.01 µM): 0.227 | relative viability (NCI-H727; first compound 0.03162 µM): 0.281 | relative viability (NCI-H727; first compound 0.1 µM): 0.344 | relative viability (NCI-H358; first compound 0.001 µM): 0.286 | relative viability (NCI-H358; first compound 0.003162 µM): 0.311 | relative viability (NCI-H358; first compound 0.01 µM): 0.43 | relative viability (NCI-H358; first compound 0.03162 µM): 0.188 | relative viability (SW 900; first compound 0.001 µM): 0.177 | relative viability (SW 900; first compound 0.003162 µM): 0.176 | relative viability (SW 900; first compound 0.01 µM): 0.164 | relative viability (SW 900; first compound 0.03162 µM): 0.186 | relative viability (SW 900; first compound 0.1 µM): 0.198 | relative viability (NCI-H2170; first compound 0.001 µM): 0.591 | relative viability (NCI-H2170; first compound 0.003162 µM): 1.11 | relative viability (NCI-H2170; first compound 0.01 µM): 1.5 | relative viability (NCI-H2170; first compound 0.03162 µM): 0.328 | relative viability (NCI-H2170; first compound 0.1 µM): 0.877 | relative viability (NCI-H1563; first compound 0.001 µM): 0.546 | relative viability (NCI-H1563; first compound 0.003162 µM): 0.475 | relative viability (NCI-H1563; first compound 0.01 µM): 0.534 | relative viability (NCI-H1563; first compound 0.03162 µM): 0.51 | relative viability (NCI-H1563; first compound 0.1 µM): 0.441 | relative viability (NCI-H650; first compound 0.001 µM): 0.687 | relative viability (NCI-H650; first compound 0.003162 µM): 0.564 | relative viability (NCI-H650; first compound 0.01 µM): 0.792 | relative viability (NCI-H650; first compound 0.03162 µM): 0.742 | relative viability (NCI-H650; first compound 0.1 µM): 0.79
